Reference: ChEMBL document CHEMBL1150069, “Ethnobotanical drug discovery based on medicine men's trials in the African savanna: screening of east African plants for antimicrobial activity II” (1993)
≈ marks a conversion by molar mass, not a printed value.

How the values were obtained:
[1] = test system: Schizosaccharomyces pombe; experiment: Antimicrobial activity against Schizosaccharomyces pombe IFO 0342 after 2 days by twofold serial broth dilution method; type: functional; details: IFO 0342, 48 h
Wickerhamomyces anomalus = experiment: Antimicrobial activity against Hansenula anomala IFO 0136 after 2 days by twofold serial broth dilution method; type: functional; details: IFO 0136, 48 h
Proteus vulgaris = experiment: Antimicrobial activity against Proteus vulgaris IAM 12003 after 2 days by twofold serial broth dilution method; type: functional; details: IAM 12003, 48 h
Micrococcus luteus = experiment: Antimicrobial activity against Micrococcus luteus IFO 3333 after 2 days by twofold serial broth dilution method; type: functional; details: IFO 3333, 48 h
Penicillium crustosum = experiment: Antimicrobial activity against Penicillium crustosum Thom after 2 days by twofold serial broth dilution method; type: functional; details: 48 h
Mucor mucedo = experiment: Antimicrobial activity against Mucor mucedo IFO 7684 after 2 days by twofold serial broth dilution method; type: functional; details: IFO 7684, 48 h
Cyberlindnera jadinii = experiment: Antimicrobial activity against Candida utilis ATCC 42402 after 2 days by twofold serial broth dilution method; type: functional; details: Williopsis jadinii, ATCC 42402, 48 h
Saccharomyces cerevisiae = experiment: Antimicrobial activity against Saccharomyces cerevisiae IFO 0203 after 2 days by twofold serial broth dilution method; type: functional; details: IFO 0203, 48 h
Pseudomonas aeruginosa = experiment: Antimicrobial activity against Pseudomonas aeruginosa IAM 1007 after 2 days by twofold serial broth dilution method; type: functional; details: IAM 1007, 48 h
Escherichia coli = experiment: Antimicrobial activity against Escherichia coli IFO 3545 after 2 days by twofold serial broth dilution method; type: functional; details: IFO 3545, 48 h
Bacillus subtilis = experiment: Antimicrobial activity against Bacillus subtilis ATCC 6633 after 2 days by twofold serial broth dilution method; type: functional; details: ATCC 6633, 48 h
Staphylococcus aureus = experiment: Antimicrobial activity against Staphylococcus aureus NCTC 8530 after 2 days by twofold serial broth dilution method; type: functional; details: NCTC 8530, 48 h
[2] = test system: Rhizopus microsporus var. chinensis; experiment: Antimicrobial activity against Rhizopus chinensis IFO 4772 after 2 days by twofold serial broth dilution method; type: functional; details: IFO 4772, 48 h
Aspergillus niger = experiment: Antimicrobial activity against Aspergillus niger ATCC 6275 after 2 days by twofold serial broth dilution method; type: functional; details: ATCC 6275, 48 h
Sclerotinia = experiment: Antimicrobial activity against Sclerotinia libertiana Ss after 2 days by twofold serial broth dilution method; details: 48 h

| Structure (SMILES) | MIC [1] | MIC (Wickerhamomyces anomalus) | MIC (Proteus vulgaris) | MIC (Micrococcus luteus) | MIC (Penicillium crustosum) | MIC (Mucor mucedo) | MIC (Cyberlindnera jadinii) | MIC (Saccharomyces cerevisiae) | MIC (Pseudomonas aeruginosa) | MIC (Escherichia coli) | MIC (Bacillus subtilis) | MIC (Staphylococcus aureus) | MIC [2] | MIC (Aspergillus niger) | MIC (Sclerotinia) |
| --- | --- | --- | --- | --- | --- | --- | --- | --- | --- | --- | --- | --- | --- | --- | --- |
| C=C1[C@@H](C)CC[C@@]2(C)[C@H]1CC=C(C=O)[C@]2(O)C=O | 25 µg/mL (≈ 101 µM) | 25 µg/mL (≈ 101 µM) | > 100 µg/mL | > 100 µg/mL | 50 µg/mL (≈ 201 µM) | 25 µg/mL (≈ 101 µM) | 3.13 µg/mL (≈ 12.6 µM) | 1.56 µg/mL (≈ 6.28 µM) | > 100 µg/mL | > 100 µg/mL | > 100 µg/mL | > 100 µg/mL | 100 µg/mL (≈ 403 µM) | 50 µg/mL (≈ 201 µM) | 3.13 µg/mL (≈ 12.6 µM) |
| CC(C)=CCc1cc([C@@H]2CC(=O)c3ccc(O)cc3O2)ccc1O [ABYSSINONE II] | – | – | – | – | > 100 µg/mL | 50 µg/mL (≈ 154 µM) | 100 µg/mL (≈ 308 µM) | 100 µg/mL (≈ 308 µM) | > 100 µg/mL | > 100 µg/mL | 50 µg/mL (≈ 154 µM) | 50 µg/mL (≈ 154 µM) | – | – | – |
| CC(C)=CCc1cc([C@@H]2CC(=O)c3ccc(O)cc3O2)cc(CC=C(C)C)c1O [ABYSSINONE IV] | – | – | – | – | > 100 µg/mL | > 100 µg/mL | > 100 µg/mL | > 100 µg/mL | > 100 µg/mL | > 100 µg/mL | 12.5 µg/mL (≈ 31.8 µM) | 25 µg/mL (≈ 63.7 µM) | – | – | – |
| CC1(C)C=Cc2cc([C@@H]3CC(=O)c4ccc(O)cc4O3)ccc2O1 [ABYSSINONE I] | – | – | – | – | > 100 µg/mL | > 100 µg/mL | > 100 µg/mL | > 100 µg/mL | > 100 µg/mL | > 100 µg/mL | > 100 µg/mL | > 100 µg/mL | – | – | – |
| CC(C)=CCc1cc(/C=C/C(=O)c2ccc(O)cc2O)cc(CC=C(C)C)c1O [ABYSSINONE VI] | – | – | – | – | > 100 µg/mL | > 100 µg/mL | > 100 µg/mL | > 100 µg/mL | > 100 µg/mL | > 100 µg/mL | > 100 µg/mL | > 100 µg/mL | – | – | – |
| CC(C)=CCc1cc([C@@H]2CC(=O)c3c(O)cc(O)cc3O2)cc(CC=C(C)C)c1O [ABYSSINONE V] | – | – | – | – | > 100 µg/mL | > 100 µg/mL | > 100 µg/mL | > 100 µg/mL | > 100 µg/mL | > 100 µg/mL | 25 µg/mL (≈ 61.2 µM) | 50 µg/mL (≈ 122 µM) | – | – | – |
| CC(=O)O[C@@H]1C=C(C=O)[C@](O)(C=O)[C@@]2(C)CCCC(C)(C)[C@H]12 [CINNAMODIAL] | – | – | > 100 µg/mL | > 100 µg/mL | > 100 µg/mL | > 100 µg/mL | > 100 µg/mL | > 100 µg/mL | > 100 µg/mL | > 100 µg/mL | > 100 µg/mL | > 100 µg/mL | > 100 µg/mL | > 100 µg/mL | > 100 µg/mL |
| CC1(C)CCC[C@]2(C)[C@H](C=O)C(C=O)=CC[C@@H]12 [EPIPOLYGODIAL] | > 100 µg/mL | > 100 µg/mL | > 100 µg/mL | > 100 µg/mL | > 100 µg/mL | > 100 µg/mL | > 100 µg/mL | > 100 µg/mL | > 100 µg/mL | > 100 µg/mL | > 100 µg/mL | > 100 µg/mL | > 100 µg/mL | > 100 µg/mL | > 100 µg/mL |
| CC(C)=CCc1cc2c(cc1O)OC[C@H]1c3ccc(O)c(CC=C(C)C)c3O[C@@H]21 [ERYBRAEDIN C] | – | – | – | – | > 100 µg/mL | > 100 µg/mL | > 100 µg/mL | > 100 µg/mL | > 100 µg/mL | > 100 µg/mL | 3.13 µg/mL (≈ 7.97 µM) | 3.13 µg/mL (≈ 7.97 µM) | – | – | – |
| COc1ccc2c(c1CC=C(C)C)O[C@H]1c3ccc(O)cc3OC[C@@]21O [ERYTHRABYSSIN I] | – | – | – | – | > 100 µg/mL | 25 µg/mL (≈ 70.5 µM) | 50 µg/mL (≈ 141 µM) | 50 µg/mL (≈ 141 µM) | > 100 µg/mL | > 100 µg/mL | 6.25 µg/mL (≈ 17.6 µM) | 12.5 µg/mL (≈ 35.3 µM) | – | – | – |
| CC1(C)CCC[C@@]2(C)[C@H]1[C@@H](O)C=C(C=O)[C@]2(O)C=O [MUKAADIAL] | > 100 µg/mL | > 100 µg/mL | > 100 µg/mL | > 100 µg/mL | > 100 µg/mL | > 100 µg/mL | > 100 µg/mL | > 100 µg/mL | > 100 µg/mL | > 100 µg/mL | > 100 µg/mL | > 100 µg/mL | > 100 µg/mL | > 100 µg/mL | 100 µg/mL (≈ 375 µM) |
| CC1(C)C=Cc2c(ccc3c2O[C@H]2c4ccc(O)cc4OC[C@@H]32)O1 [PHASEOLIN] | – | – | – | – | > 100 µg/mL | 12.5 µg/mL (≈ 38.8 µM) | 50 µg/mL (≈ 155 µM) | 25 µg/mL (≈ 77.6 µM) | > 100 µg/mL | > 100 µg/mL | 6.25 µg/mL (≈ 19.4 µM) | 12.5 µg/mL (≈ 38.8 µM) | – | – | – |
| CC(C)=CCc1c(O)ccc2c1O[C@H]1c3ccc(O)cc3OC[C@@H]21 [PHASEOLLIDIN] | – | – | – | – | > 100 µg/mL | 100 µg/mL (≈ 308 µM) | > 100 µg/mL | > 100 µg/mL | > 100 µg/mL | > 100 µg/mL | 25 µg/mL (≈ 77.1 µM) | 50 µg/mL (≈ 154 µM) | – | – | – |
| CC(C)=CCc1cc(C2CC(=O)c3c(O)cc(O)cc3O2)cc(CC=C(C)C)c1O (stereo not drawn) [PHASEOLLIN] | – | – | – | – | > 100 µg/mL | 50 µg/mL (≈ 122 µM) | 100 µg/mL (≈ 245 µM) | 100 µg/mL (≈ 245 µM) | > 100 µg/mL | > 100 µg/mL | 25 µg/mL (≈ 61.2 µM) | 25 µg/mL (≈ 61.2 µM) | – | – | – |
| CC1(C)CCC[C@]2(C)[C@@H](C=O)C(C=O)=CC[C@@H]12 [POLYGODIAL] | 6.25 µg/mL (≈ 26.7 µM) | 1.56 µg/mL (≈ 6.66 µM) | > 100 µg/mL | > 100 µg/mL | 25 µg/mL (≈ 107 µM) | 6.25 µg/mL (≈ 26.7 µM) | 1.56 µg/mL (≈ 6.66 µM) | 0.78 µg/mL (≈ 3.33 µM) | > 100 µg/mL | > 100 µg/mL | > 100 µg/mL | > 100 µg/mL | 12.5 µg/mL (≈ 53.3 µM) | 25 µg/mL (≈ 107 µM) | 1.56 µg/mL (≈ 6.66 µM) |
| CC1(C)CCC[C@@]2(C)[C@H]1CC=C(C=O)[C@]2(O)C=O [WARBURGANAL] | 12.5 µg/mL (≈ 49.9 µM) | 12.5 µg/mL (≈ 49.9 µM) | > 100 µg/mL | > 100 µg/mL | 50 µg/mL (≈ 200 µM) | 25 µg/mL (≈ 99.9 µM) | 3.13 µg/mL (≈ 12.5 µM) | 3.13 µg/mL (≈ 12.5 µM) | > 100 µg/mL | > 100 µg/mL | > 100 µg/mL | > 100 µg/mL | 100 µg/mL (≈ 399 µM) | 50 µg/mL (≈ 200 µM) | 3.13 µg/mL (≈ 12.5 µM) |
